Values joined by “and” are separate entries in the source; they are usually repeats but may differ in a detail not shown here. Equal entries are not always repeated.
What was measured:
CDK9/cyclin T2 = CDK9/cyclin T2 (Homo sapiens, UniProt P50750); settings: 1 μM; Run 1, Run 2
CK1a1 = CK1a1 (Homo sapiens, UniProt P48729); settings: 1 μM; Run 1, Run 2
CK1g1 = CK1g1 (Homo sapiens, UniProt Q9HCP0); settings: 1 μM; Run 1, Run 2
HPK1/MAP4K1 = HPK1/MAP4K1 (Homo sapiens, UniProt Q92918); settings: 1 μM; Run 1, Run 2
MARK3 = MARK3 (Homo sapiens, UniProt P27448); settings: 1 μM; Run 1, Run 2
NEK4 = NEK4 (Homo sapiens, UniProt P51957); settings: 1 μM; Run 1, Run 2
p70S6Kb/RPS6KB2 = p70S6Kb/RPS6KB2 (Homo sapiens, UniProt Q9UBS0); settings: 1 μM; Run 1, Run 2
ULK2 = biological target: T1, ULK2 (Homo sapiens, UniProt Q8IYT8); settings: 1 μM; Run 1, Run 2
T1 sequence (Q8IYT8 1-1036): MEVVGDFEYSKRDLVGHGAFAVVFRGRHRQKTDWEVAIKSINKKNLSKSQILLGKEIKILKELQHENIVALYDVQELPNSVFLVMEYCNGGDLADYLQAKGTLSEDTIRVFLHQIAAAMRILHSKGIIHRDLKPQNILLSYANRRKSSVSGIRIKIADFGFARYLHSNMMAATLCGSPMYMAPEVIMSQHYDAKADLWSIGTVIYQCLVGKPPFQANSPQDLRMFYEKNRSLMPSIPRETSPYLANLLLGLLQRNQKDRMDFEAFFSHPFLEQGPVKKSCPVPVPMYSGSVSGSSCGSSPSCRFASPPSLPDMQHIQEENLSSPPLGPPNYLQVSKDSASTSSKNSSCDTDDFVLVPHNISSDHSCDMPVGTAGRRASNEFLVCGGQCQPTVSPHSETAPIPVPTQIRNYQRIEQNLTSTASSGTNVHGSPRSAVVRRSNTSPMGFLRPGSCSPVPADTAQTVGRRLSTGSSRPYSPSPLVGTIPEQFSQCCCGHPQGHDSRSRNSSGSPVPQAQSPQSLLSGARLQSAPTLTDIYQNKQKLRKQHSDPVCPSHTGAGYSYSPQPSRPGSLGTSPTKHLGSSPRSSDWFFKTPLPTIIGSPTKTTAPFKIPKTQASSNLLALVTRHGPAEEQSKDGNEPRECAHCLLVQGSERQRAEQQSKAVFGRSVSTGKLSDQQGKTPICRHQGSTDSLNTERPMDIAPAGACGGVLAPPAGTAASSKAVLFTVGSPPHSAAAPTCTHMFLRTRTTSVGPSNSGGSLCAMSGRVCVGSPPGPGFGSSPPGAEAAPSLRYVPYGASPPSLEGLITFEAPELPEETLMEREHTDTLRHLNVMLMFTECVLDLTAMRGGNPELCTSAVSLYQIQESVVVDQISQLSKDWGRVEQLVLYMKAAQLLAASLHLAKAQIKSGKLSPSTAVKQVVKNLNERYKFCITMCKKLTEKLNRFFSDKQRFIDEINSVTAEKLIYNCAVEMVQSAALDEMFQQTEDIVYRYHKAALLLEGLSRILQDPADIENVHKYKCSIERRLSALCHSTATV

BTK = BTK (Homo sapiens, UniProt Q06187); assay: biochemical; settings: read-out: % enzyme activity, 1 μM; Run 1, Run 2
DYRK4 = biological target: T2, DYRK4 (Homo sapiens, UniProt Q9NR20); assay: biochemical; settings: read-out: % enzyme activity, 1 μM; Run 1, Run 2
T2 sequence (Q9NR20 1-520): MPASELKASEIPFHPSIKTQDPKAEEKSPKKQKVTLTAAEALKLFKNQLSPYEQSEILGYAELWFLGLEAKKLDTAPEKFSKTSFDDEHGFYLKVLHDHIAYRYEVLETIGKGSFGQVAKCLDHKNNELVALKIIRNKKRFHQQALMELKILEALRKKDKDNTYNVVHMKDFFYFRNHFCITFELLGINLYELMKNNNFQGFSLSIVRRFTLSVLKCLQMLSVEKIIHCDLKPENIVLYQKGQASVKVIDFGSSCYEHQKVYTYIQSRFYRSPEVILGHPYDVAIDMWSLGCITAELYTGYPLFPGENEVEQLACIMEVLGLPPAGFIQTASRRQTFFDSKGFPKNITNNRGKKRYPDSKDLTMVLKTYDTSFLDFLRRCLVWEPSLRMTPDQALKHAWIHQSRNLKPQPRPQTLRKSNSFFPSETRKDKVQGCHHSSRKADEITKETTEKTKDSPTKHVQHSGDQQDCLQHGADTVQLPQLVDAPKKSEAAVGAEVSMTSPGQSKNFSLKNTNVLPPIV

MAST3 = MAST3 (Homo sapiens, UniProt O60307); assay: biochemical; settings: read-out: % enzyme activity, 1 μM; Run 1, Run 2
MEKK2 = biological target: T3, MEKK2 (Homo sapiens, UniProt Q9Y2U5); assay: biochemical; settings: read-out: % enzyme activity, 1 μM; Run 1, Run 2
T3 sequence (Q9Y2U5 1-619): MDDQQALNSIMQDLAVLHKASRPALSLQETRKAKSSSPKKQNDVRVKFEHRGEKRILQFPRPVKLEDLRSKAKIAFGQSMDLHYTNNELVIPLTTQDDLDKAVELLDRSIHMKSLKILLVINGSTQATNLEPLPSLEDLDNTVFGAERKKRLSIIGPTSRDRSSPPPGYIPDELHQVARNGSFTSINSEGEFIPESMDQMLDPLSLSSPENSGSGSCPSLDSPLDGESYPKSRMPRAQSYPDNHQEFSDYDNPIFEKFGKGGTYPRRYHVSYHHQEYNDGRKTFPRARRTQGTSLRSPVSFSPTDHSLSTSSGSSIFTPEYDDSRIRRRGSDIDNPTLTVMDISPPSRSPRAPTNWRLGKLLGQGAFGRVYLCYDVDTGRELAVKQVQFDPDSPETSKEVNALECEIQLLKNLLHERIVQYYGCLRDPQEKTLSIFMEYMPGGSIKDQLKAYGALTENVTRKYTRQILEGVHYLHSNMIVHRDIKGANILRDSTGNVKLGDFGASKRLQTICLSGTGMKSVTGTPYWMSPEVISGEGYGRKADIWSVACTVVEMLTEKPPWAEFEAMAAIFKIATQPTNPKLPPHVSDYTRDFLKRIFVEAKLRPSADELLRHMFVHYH

MLK2/MAP3K10 = MLK2/MAP3K10 (Homo sapiens, UniProt Q02779); assay: biochemical; settings: read-out: % enzyme activity, 1 μM; Run 1, Run 2
SRMS = SRMS (Homo sapiens, UniProt Q9H3Y6); assay: biochemical; settings: read-out: % enzyme activity, 1 μM; Run 1, Run 2

Sequence of CK1g1 (Q9HCP0 whole entry): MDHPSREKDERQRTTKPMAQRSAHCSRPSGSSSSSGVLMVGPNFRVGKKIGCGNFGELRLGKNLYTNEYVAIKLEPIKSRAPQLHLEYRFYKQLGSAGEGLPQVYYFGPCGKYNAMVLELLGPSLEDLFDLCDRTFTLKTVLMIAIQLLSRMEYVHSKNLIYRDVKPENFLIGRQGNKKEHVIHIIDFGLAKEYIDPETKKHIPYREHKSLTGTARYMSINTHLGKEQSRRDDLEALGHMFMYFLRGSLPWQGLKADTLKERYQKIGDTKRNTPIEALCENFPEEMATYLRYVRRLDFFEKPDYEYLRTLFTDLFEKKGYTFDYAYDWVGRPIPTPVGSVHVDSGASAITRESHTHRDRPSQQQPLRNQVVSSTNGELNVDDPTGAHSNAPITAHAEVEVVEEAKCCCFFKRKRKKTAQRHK
Sequence of NEK4 (P51957 whole entry): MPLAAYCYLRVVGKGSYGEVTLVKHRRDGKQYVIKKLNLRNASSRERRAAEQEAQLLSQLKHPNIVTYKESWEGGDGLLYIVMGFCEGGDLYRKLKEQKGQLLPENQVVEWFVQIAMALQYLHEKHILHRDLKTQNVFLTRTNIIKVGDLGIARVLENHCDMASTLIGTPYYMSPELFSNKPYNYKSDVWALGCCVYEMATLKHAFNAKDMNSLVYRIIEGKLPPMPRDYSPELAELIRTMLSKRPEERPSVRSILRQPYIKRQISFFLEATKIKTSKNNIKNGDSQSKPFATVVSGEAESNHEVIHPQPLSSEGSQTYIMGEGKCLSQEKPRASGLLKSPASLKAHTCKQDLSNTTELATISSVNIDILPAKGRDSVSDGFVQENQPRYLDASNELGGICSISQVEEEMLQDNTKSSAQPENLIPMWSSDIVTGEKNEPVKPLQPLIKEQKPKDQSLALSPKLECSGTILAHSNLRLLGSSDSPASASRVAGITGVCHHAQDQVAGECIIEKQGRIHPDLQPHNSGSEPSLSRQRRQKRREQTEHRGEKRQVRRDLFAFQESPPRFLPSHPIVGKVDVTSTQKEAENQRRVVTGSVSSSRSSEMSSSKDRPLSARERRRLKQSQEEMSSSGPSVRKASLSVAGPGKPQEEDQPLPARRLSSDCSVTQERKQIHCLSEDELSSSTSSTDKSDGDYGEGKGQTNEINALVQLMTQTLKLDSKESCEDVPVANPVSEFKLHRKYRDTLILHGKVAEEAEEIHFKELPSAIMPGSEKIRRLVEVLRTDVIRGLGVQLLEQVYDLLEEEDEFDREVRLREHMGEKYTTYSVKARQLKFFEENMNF
Sequence of HPK1/MAP4K1 (Q92918 whole entry): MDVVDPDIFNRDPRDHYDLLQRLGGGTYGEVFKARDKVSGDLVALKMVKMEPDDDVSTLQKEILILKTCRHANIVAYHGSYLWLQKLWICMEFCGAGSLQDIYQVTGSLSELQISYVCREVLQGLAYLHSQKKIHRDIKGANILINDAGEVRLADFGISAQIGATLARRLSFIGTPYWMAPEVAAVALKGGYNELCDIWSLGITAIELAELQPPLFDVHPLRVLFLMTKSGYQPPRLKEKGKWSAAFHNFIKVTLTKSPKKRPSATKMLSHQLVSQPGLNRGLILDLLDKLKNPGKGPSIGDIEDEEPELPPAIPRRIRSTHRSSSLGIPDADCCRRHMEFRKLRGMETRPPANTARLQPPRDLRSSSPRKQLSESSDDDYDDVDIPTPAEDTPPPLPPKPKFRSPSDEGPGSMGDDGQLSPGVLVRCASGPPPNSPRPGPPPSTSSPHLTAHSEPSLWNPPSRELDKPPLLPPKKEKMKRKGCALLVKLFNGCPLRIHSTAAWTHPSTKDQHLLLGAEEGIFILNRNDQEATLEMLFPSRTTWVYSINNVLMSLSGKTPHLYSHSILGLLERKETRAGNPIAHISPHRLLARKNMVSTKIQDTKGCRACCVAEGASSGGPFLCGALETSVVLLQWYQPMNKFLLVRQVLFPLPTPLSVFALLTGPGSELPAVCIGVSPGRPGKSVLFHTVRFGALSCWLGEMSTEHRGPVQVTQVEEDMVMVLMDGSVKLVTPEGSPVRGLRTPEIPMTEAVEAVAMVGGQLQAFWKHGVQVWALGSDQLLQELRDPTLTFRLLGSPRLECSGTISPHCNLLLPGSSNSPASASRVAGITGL
Sequence of BTK (Q06187 whole entry): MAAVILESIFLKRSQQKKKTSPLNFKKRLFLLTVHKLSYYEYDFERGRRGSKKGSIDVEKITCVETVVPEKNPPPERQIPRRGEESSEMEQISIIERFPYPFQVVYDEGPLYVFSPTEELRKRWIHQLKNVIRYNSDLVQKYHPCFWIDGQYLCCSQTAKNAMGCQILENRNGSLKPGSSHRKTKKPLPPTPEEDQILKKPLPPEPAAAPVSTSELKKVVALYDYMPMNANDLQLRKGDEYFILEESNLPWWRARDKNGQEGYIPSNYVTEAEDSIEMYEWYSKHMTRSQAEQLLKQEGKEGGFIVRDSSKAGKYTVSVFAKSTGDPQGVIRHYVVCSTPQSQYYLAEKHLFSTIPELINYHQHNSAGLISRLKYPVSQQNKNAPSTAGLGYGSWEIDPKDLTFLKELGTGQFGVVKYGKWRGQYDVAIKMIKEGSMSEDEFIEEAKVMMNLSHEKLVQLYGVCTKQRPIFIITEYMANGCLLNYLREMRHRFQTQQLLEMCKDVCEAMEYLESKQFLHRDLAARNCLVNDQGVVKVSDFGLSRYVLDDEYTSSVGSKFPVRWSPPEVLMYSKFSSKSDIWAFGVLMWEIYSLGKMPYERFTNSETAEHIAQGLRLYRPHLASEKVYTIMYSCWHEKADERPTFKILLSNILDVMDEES
Sequence of MARK3 (P27448 whole entry): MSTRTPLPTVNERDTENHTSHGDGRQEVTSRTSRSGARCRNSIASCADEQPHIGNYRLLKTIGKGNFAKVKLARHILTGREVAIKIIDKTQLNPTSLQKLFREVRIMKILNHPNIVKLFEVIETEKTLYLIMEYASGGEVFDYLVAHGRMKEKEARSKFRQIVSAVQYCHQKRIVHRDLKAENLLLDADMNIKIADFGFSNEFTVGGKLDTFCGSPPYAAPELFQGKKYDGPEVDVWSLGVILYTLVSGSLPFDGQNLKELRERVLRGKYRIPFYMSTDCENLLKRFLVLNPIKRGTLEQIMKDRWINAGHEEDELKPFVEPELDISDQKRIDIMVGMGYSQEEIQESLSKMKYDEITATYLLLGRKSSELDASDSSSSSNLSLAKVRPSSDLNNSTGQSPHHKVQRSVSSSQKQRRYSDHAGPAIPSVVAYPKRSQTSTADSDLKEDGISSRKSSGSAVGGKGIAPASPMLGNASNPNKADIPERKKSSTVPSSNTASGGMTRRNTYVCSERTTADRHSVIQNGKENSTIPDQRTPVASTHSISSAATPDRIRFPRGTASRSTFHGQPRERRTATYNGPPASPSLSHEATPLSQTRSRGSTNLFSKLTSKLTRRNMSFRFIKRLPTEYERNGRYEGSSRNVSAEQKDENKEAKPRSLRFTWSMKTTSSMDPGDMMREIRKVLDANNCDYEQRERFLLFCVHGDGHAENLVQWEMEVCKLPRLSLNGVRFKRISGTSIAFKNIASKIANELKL
Sequence of CK1a1 (P48729 whole entry): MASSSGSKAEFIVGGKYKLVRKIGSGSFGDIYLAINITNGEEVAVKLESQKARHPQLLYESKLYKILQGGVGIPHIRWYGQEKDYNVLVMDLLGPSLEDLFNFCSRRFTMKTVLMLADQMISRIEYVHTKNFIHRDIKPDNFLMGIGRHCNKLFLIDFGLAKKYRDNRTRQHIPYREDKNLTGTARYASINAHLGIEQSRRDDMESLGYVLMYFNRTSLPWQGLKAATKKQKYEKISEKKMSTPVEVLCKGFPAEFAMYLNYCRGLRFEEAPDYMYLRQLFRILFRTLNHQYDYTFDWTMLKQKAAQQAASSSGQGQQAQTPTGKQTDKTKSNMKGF
Sequence of MLK2/MAP3K10 (Q02779 whole entry): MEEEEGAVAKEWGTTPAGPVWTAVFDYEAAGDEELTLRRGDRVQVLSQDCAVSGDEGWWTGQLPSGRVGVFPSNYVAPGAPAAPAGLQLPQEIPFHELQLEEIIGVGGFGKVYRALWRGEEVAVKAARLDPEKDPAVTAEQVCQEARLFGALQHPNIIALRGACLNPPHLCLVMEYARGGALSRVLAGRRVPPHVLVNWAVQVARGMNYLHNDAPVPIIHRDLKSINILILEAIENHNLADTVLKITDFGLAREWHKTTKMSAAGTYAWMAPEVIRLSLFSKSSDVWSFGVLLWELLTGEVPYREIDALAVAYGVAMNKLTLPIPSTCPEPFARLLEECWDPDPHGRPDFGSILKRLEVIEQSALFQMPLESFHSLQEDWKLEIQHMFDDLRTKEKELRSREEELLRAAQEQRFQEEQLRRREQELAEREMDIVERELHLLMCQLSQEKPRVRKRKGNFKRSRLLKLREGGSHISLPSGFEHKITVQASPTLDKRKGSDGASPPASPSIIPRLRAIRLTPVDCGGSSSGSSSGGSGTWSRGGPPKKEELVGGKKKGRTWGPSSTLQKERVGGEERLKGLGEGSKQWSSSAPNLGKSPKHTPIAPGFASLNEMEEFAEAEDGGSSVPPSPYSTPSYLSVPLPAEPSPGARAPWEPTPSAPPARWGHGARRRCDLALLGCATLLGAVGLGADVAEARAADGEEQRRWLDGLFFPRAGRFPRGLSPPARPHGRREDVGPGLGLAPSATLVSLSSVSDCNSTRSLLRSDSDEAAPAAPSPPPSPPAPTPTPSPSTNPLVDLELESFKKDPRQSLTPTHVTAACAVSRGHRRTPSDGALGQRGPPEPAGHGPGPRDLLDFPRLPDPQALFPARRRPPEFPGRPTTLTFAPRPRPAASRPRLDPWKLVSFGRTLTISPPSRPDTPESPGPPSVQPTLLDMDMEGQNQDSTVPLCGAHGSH

| SMILES | % enzyme activity at 1 μM (ALK5/TGFBR1) | % enzyme activity (CDK9/cyclin T2) | % enzyme activity (CK1a1) | % enzyme activity (CK1g1) | % enzyme activity (HPK1/MAP4K1) | % enzyme activity (MARK3) | % enzyme activity (NEK4) | % enzyme activity (p70S6Kb/RPS6KB2) | % enzyme activity (ULK2) | remaining activity at 1 µM (BTK) | remaining activity at 1 µM (DYRK4) | remaining activity at 1 µM (MAST3) | remaining activity at 1 µM (MEKK2) | remaining activity at 1 µM (MLK2/MAP3K10) | remaining activity at 1 µM (SRMS) |
| --- | --- | --- | --- | --- | --- | --- | --- | --- | --- | --- | --- | --- | --- | --- | --- |
| COc1cc(-c2cncc(-c3ccc(N4CCN(C)CC4)cc3)c2C)cc(F)c1C(N)=O [Compound 26a, 2-Fluoro-6-methoxy-4-(4-methyl-5-(4-(4-methylpiperazin-1-yl)phenyl)pyridin-3-yl)benzamide] | 82.5% and 82.3% | 99.00% | 91.31% | 55.41% | 57.53% | 82.91% | 97.67% | 97.21% | 73.24% | 95.3% | 103% | 94.7% | 95% | 86.4% | 96.6% |
| COc1cc(-c2cncc(-c3ccc(N4C[C@@H](C)N(C)[C@@H](C)C4)cc3)c2C)cc(F)c1C(N)=O [Compound 26c, 2-Fluoro-6-methoxy-4-(4-methyl-5-(4-((3R,5S)-3,4,5-trimethylpiperazin-1-yl)phenyl)pyridin-3-yl)benzamide] | 97.2% and 96.6% | 100.35% | 99.44% | 69.61% | 74.31% | 93.66% | 97.25% | 99.09% | 84.46% | 96.5% | 101% | 95.5% | 98.8% | 98.5% | 96.1% |

Source: publication PMC8213057, “Targeting ALK2: An Open Science Approach to Developing Therapeutics for the Treatment of Diffuse Intrinsic Pontine Glioma” (Journal of Medicinal Chemistry, 2020)
